In general, AUC(0-t) refers to the area under the concentration-time curve up to a stated or last time point. One may read the Tmax as the time at which the peak concentration occurs. Usually Cmax stands for the peak of the concentration-time curve. A word on the bioavailability: it is dose-corrected exposure relative to a reference, in per cent. Usually AUC stands for the area under the concentration-time curve, a measure of exposure.

Data set [1] is described as follows: Whole blood stability (half-life) and metabolite formation. The class given is in vitro ADME, rat, dog, monkey and human. The settings on record: for metabolism in whole blood metabolite study: rat, dog. On the procedure:
(§1) The stability (whole blood, liver S9, SGF, SIF, and PBS buffer) and MDCK-MDR1 monolayer permeability of LB100, LB-100 Carbonate and LB-100 POM were evaluated.
(§2) Samples were analyzed by LC-MS/MS using a SCIEX QTrap 5500 mass spectrometer coupled with an Agilent 1290 HPLC Infinity series, a CTC PAL chilled autosampler, all controlled by Analyst software. After separation on a C18 reverse phase HPLC column (Acquity UPLC HSS T3, 1.8, 2.1×50 mm) using an acetonitrile-water gradient system, peaks were analyzed by mass spectrometry (MS) using […] ionization in MRM mode.
Whole Blood Stability: Experimental Conditions Experimental Procedure: The stock solution was first diluted in acetonitrile at a concentration that is 100× of the desired final concentration. It was incubated in duplicate with whole blood at 37° C. At indicated times, an aliquot was removed from each experimental and control reaction and mixed with three volumes of ice-cold Stop Solution (methanol containing propranolol as internal standard). Stopped reactions were incubated at least ten minutes at −20° C. The samples were centrifuged to remove precipitated protein, and the supernatants were analyzed by LC-MS/MS to quantitate the remaining parent and the formation of metabolites.
Data were converted to % remaining by dividing by the time zero concentration value. Data were fit to a first-order decay model to determine half-life.

The next data set is described as follows: in vivo. The conditions noted are these: rat, 1.4 mg/kg. On the procedure: 113 was dissolved in 4% NaHCO3 in saline for IV administration. The detailed procedure of dosing solution preparation was presented in Appendix I.
15 animals were placed on the study. The animals in IV arm were free access to food and water. For PO dose group, the animals were fasted overnight prior to dosing and the food was resumed 4 hours postdose.
The IV injection was conducted via foot dorsal vein. PO via oral gavage.
Blood collection: The animal is restrained manually. Approximately 200 μL of blood/time point is collected into sodium heparin tube via cardiac puncture for terminal bleeding (anesthetized under carbon dioxide). Blood sample will be put on ice and centrifuged to obtain plasma sample (2000 g, 5 min under 4° C.) within 10 minutes.
Liver collection: The animal will be euthanized with carbon dioxide inhalation. Open abdominal cavity with scissor to expose internal organs. Hold the carcass in an upright position and allow the organs to fall forward. Cut the connective tissues and remove the organs. Then the organs are rinsed with cold saline, dried on filtrate paper, placed into a screw-top tube and weighed, snap frozen by placing into dry-ice immediately.
Brain collection: Make a mid-line incision in the animals scalp and retract the skin. Using small bone cutters and rongeurs, remove the skull overlying the brain. Remove the brain using a spatula and rinse with cold saline, dried on filtrate paper, placed into a screw-top tube and weighed, snap frozen by placing into dry-ice immediately. […] Plasma, brain and liver samples were stored at approximately −80° C. until analysis. The backup samples will be discarded after three weeks after in-life completion unless requested. The unused dosing solutions will be discarded within three weeks after completion of the study.
Pharmacokinetic Analysis Software: The PK parameters were determined by non-compartmental model of non-compartmental analysis tool, Pharsight Phoenix WinNonlin® 6.2 software. […] Concentration data within 80%-120% of LLOQ was considered within normal instrumental variation and presented in the results. Terminal t1/2 calculation: Time points were automatic selected by “best fit” model for terminal half life estimation as the first option. Manual selection was applied when “best fit” could not well define the terminal phase. Results

The nature of data set [2]: Liver S9 stability and metabolite formation. The class given is in vitro ADME, rat, dog, monkey and human. The conditions noted are these: presence and absence of NADPH, cross species. On the procedure: as §1, §2
Experimental Procedure: Test agent is incubated in duplicate with liver S9 at 37° C. The reaction contains liver S9 protein in 100 mM potassium phosphate, 2 mM NADPH, 3 mM MgCl2, pH 7.4. A control is run for each test agent omitting NADPH to detect NADPH-free degradation. At indicated times, an aliquot is removed from each experimental and control reaction and mixed with an equal volume of ice-cold Stop Solution (methanol, containing internal standard propranolol). Stopped reactions are incubated for 10 minutes at −20° C. Samples are centrifuged to remove precipitated protein, and supernatants are analyzed by LC/MS/MS to quantitate remaining parent and the formation of metabolites. Data are reported as % remaining by dividing by the time zero concentration value.

Data set [3] is described as follows: Pharmacokinetic study of 157 (iv, po) in SD rats: 157 and endothal in plasma, liver, brain. The data set is classed as in vivo. As to the method:
The blood, liver and brain tissue samples were collected at predetermined times from rats. […] Compound were diluted shortly before use in 4% sodium bicarbonate for sterile injection (this is the standard pediatric solution of NaHCO3 with a pH of about 8.5).
Compound 153 was freshly prepared by diluting the drugs shortly before use in 4% sodium bicarbonate for sterile injection (this is the standard pediatric solution of NaHCO3 with a pH of about 8.5). The final concentrations of 153 solutions were 0.25 mg/mL. The 153 solutions were administered via iv or po route at dose volume of 5 ml/kg according to the latest body weight. Compound 157 was freshly prepared by diluting the drugs shortly before use in 4% sodium bicarbonate for sterile injection (this is the standard pediatric solution of NaHCO3 with a pH of about 8.5). […] The 157 solutions were administered via iv or po route at dose volume of 5 ml/kg according to the latest body weight.
Twelve (12) female SD rats per group were dosed by iv with 153 or 157. The rats were fasted overnight prior to dosing, with free access to water. Foods were withheld for 2 hours post-dose. Blood, liver and brain tissue samples in two animals each group were collected at each time point, within 10% of the scheduled time for each time point. Two extra animals were used for analytic method development.
Blood (>0.3 mL) were collected via aorta abdominalis in anaesthetic animals into tubes containing heparin at 15 min, 1, 2, 6, 10 and 24 hours after iv administration. Liver and brain tissues were collected immediately after animal death. The liver and brain tissues were excised and rinsed with cold saline to avoid blood residual. Upon collection, each sample was placed on ice and the blood samples were subsequently centrifuged (4° C., 11000 rpm, 5 min) to separate plasma.
The obtained plasma, liver and brain tissue samples were stored at −70° C. until LC-MS/MS analysis.
Two (2) female SD rats per group were dosed by po with 153 or 157. The rats were fasted overnight prior to dosing, with free access to water. Foods were withheld for 2 hours post-dose. Blood samples (>0.3 mL) were collected via aorta abdominalis in anaesthetic animals into tubes containing heparin at 30 min, 1, 2, 6, 10 and 24 hours after po administration.
To each sample, 30 μL IS-D (for blank samples, 20 μL acetonitrile:water (1:1) was added) and 300 ul acetonitrile was added. The sample mixture was vortexed for approximately 3 min. After centrifugation at 10000 rpm for 5 min at 4° C., 100 μL of the upper layer was transferred to a new tube and added 200 μL 0.4% formic acid in water (pH6.0). The mixture was vortexed for approximately 3 min before injected onto the LC/MS/MS system for analysis.
On the day of the assay, the frozen liver and brain samples were thawed unassisted at room temperature. An about 200 mg weighed sample of each thawed tissue was placed into a plastic tube with water (0.6 mL) to facilitate homogenization. Tissue processing was conducted using a homogenizer for approximately 1 min, […] homogenate was transferred into a fresh Eppendorf tube. To each tube, 50 μL IS-D was added and mixed. Then 500 ul acetonitrile was added and the sample mixture was vortexed for approximately 3 min. After centrifugation at 10000 rpm for 5 min at 4° C., 100 μL of the upper layer was transferred to a new tube and evaporate the supernatant to dryness at 35° C. Reconstitute the residue with 200 μL of 0.4% formic acid in water (pH 6.0), and vortex for 3 min, submit for LC-MS/MS analysis.
Frozen unknown plasma samples were completely thawed at room temperature and vortexed thoroughly. With a pipette, 50 μL of plasma was transferred into a 2.0 mL Eppendorf tube. 50 μL of 0.1N HCl and 800 μL ethyl acetate were added into each sample. The sample mixture was vortexed for approximately 3 min.

The mark [4] stands for this setting: iv 1.5 mg/kg, 0.25 hr, individual rats, 1.5 mg/kg.
The mark [5] stands for this setting: iv 1.5 mg/kg, 1 hr, individual rats, 1.5 mg/kg.
Where [6] appears, read: iv 1.5 mg/kg, 2 hr, individual rats, 1.5 mg/kg.
Where [7] appears, read: iv administration of 157 at 1.5 mg/kg.
[8] abbreviates: plasma, 157 1.5 mg/kg IV, individual rats, 1.5 mg/kg.
The mark [9] stands for this setting: plasma, 157 1.5 mg/kg PO, individual rats, 1.5 mg/kg.

SMILES strings stand for the structures. “And” between values parts separate entries of the source, which are not always exact repeats. Equal values may be shown once. “Also recorded” adds a separate entry of the source.

As for `CCOC(=O)OCOC(=O)[C@H]1[C@@H](C(=O)N2CCN(C)CC2)[C@@H]2CC[C@H]1O2` [LB-100 Carbonate], the “metabolite formation in whole blood half-life study” value in data set [1] (blood) is “formation of endothall and LB-100 were observed”. Further, the “metabolism in whole blood metabolite study” value in data set [1] (monkey, human) is “metabolized to endothall and LB-100”.
In the case of `CN1CCN(C(=O)C2C(C(=O)OCC(Cl)(Cl)Cl)[C@H]3CC[C@@H]2O3)CC1` (some centres unmarked) [Compound 113], in the data set “in vivo” (male, SD, po, 2 hr), the “plasma concentration of 113” value is 2.15 ng/mL. The concentration at 2 hr in the data set “in vivo” (male, SD, po, plasma concentration of 113) amounted to 2.15 ng/mL. In “in vivo” (male, Sprague-Dawley, iv), the area under the curve AUC(0-t) was 155 ng·h/mL and the time to peak (Tmax) was found to be 15 min. In “in vivo” (male, Sprague-Dawley, po), the AUC(0-t) stood at 15.7 ng·h/mL, the “AUC(0-t) of 113” value is 15.7 ng·h/mL, the concentration peaked (Cmax) at 17.7 ng/mL and the “F of 113” value came to 10.1%. Besides, the time to peak (Tmax) in the data set “in vivo” (male, Sprague-Dawley, po) was 15 min. In the data set “in vivo”, the clinical symptoms entry is listed as “No abnormal clinical symptom was observed”. For the same compound, in “in vivo” (iv), the “AUC(0-last) in brain” value came out at 47.5 ng·h/g and the “AUC(0-last) in liver” value was found to be 28.1 ng·h/g.
As for `CN1CCN(C(=O)C2C3CCC(O3)C2C(=O)OCOC(=O)C(C)(C)C)CC1` (centres unmarked) [LB-100 POM Ester], the “metabolite formation in whole blood half-life study” value in data set [1] (cross species) was “formation of endothall and LB-100 were observed”. In addition, in data set [1] (monkey and human), the “metabolism in whole blood metabolite study” value is “metabolized to endothall and LB-100”. The “metabolites observed in liver S9 stability study” value in data set [2] is “metabolites LB-100 and endothall were observed”.
On to `CCCCCCCOC(=O)C1C2CCC(O2)C1C(=O)N1CCN(C)CC1` (centres unmarked) [Compound 157], for which the “metabolism to endothal in vivo” value in data set [3] (157 administered to rats) is “metablozied to endothal in vivo; also recorded: converted to endothal in the plasma”. Besides, in data set [3] (157 at 1.5 mg/kg po to SD rats), the oral availability entry is reported as “poorly orally available”. Besides, the 157 plasma concentration is 5.92 ng/mL and 6.35 ng/mL in data set [3] (PO 1.5 mg/kg, 0.5 hr, individual rats, 1.5 mg/kg); 6.14 ng/mL in data set [3] (PO 1.5 mg/kg, 0.5 hr, mean); 1.48 ng/mL and 1.26 ng/mL in data set [3] (PO 1.5 mg/kg, 1 hr, individual rats, 1.5 mg/kg); 1.37 ng/mL in data set [3] (PO 1.5 mg/kg, 1 hr, mean); 0.303 ng/mL and 0.194 ng/mL in data set [3] (PO 1.5 mg/kg, 2 hr, individual rats, 1.5 mg/kg); 0.249 ng/mL in data set [3] (PO 1.5 mg/kg, 2 hr, mean). Moreover, the 157 plasma concentration is 116 ng/mL and 114 ng/mL in data set [3] (setting [4]); 115 ng/mL in data set [3] (iv 1.5 mg/kg, 0.25 hr, mean); 2.67 ng/mL and 3.57 ng/mL in data set [3] (setting [5]); 3.12 ng/mL in data set [3] (iv 1.5 mg/kg, 1 hr, mean); 0.491 ng/mL and 0.556 ng/mL in data set [3] (setting [6]); 0.524 ng/mL in data set [3] (iv 1.5 mg/kg, 2 hr, mean). Moreover, the bioavailability in data set [3] (female, Sprague-Dawley, rat, in vivo, 157 1.5 mg/kg PO vs IV, mean, read-out: F (bioavailability, BA)) was determined as 6.78%. The 157 brain concentration was 60.0 ng/g in data set [3] (iv 1.5 mg/kg, 0.25 hr, individual rats); 60.0 ng/g in data set [3] (iv 1.5 mg/kg, 0.25 hr, mean); 1.99 ng/g and 2.80 ng/g in data set [3] (setting [5]); 2.40 ng/g in data set [3] (iv 1.5 mg/kg, 1 hr, mean); “BLQ” in data set [3] (iv 1.5 mg/kg, 2 hr, individual rats). Besides, the 157 liver concentration in data set [3] (setting [4]) was 337 ng/g and 257 ng/g; in data set [3] (iv 1.5 mg/kg, 0.25 hr, mean), 297 ng/g; in data set [3] (setting [5]), 29.4 ng/g and 17.6 ng/g; in data set [3] (iv 1.5 mg/kg, 1 hr, mean) it was 23.5 ng/g; in data set [3] (setting [6]), 6.40 ng/g and 9.72 ng/g; in data set [3] (iv 1.5 mg/kg, 2 hr, mean), 8.06 ng/g. The 157 liver concentration entry in data set [3] (iv 1.5 mg/kg, 10 hr, individual rats) is on record as “BLQ”. The compound further returned an AUClast in brain in data set [3] (setting [7]) of 24.6 ng·h/g. Further, the AUClast in liver in data set [3] (setting [7]) is reported as 152 ng·h/g. Moreover, the area under the curve (AUC) in data set [3] (setting [8]) came out at 47.3 ng·h/mL; in data set [3] (plasma, 157 1.5 mg/kg IV, mean), 47.2 ng·h/mL; in data set [3] (setting [9]), 3 ng·h/mL. For the same compound, the “AUC0-∞” value in data set [3] (setting [8]) is 47.3 ng·h/mL; in data set [3] (plasma, 157 1.5 mg/kg IV, mean), 47.2 ng·h/mL; in data set [3] (setting [9]), 3 ng·h/mL. Also, the highest concentration (Cmax) in data set [3] (setting [8]) was 116 ng/mL and 114 ng/mL.

The values are drawn from patent US11236102B2, “Oxabicycloheptane prodrugs” (Lixte Biotechnology, Inc., priority 2015, dated 2022).
